Assay in all cases: Inhibition of bacterial growth in broth culture, CFU counting
Common to all, as to assay type: cell-based

Assay [1] concerns Escherichia coli 0.94 (A). The note with it: 1000 μM; Escherichia coli 0.94 from pig gastrointestinal content; counting after 24 hours at 37° C. The source says:
(§1) The following bacteria were isolated from pig gastrointestinal content: Escherichia coli 0.94 (A), Escherichia coli 0.96 (B), Klebsiella pneumoniae (C), Salmonella typhimurium pF3127 (D), Salmonella enteritidis pF1338 (E), Enterococcus faecalis (F), Enterococcus faecium (G), Staphylococcus hyicus (H), Lactobacillus salivarius (I) and Lactobacillus acidophilus 3 (J). Their identities were confirmed by microscopic examination after gram staining and biochemical testing using the appropriate API system. Test strains were maintained in tryptic soy broth (named BTS; […] Overnight cultures of the test organisms were diluted in tryptic soy broth to the final concentration used for inoculation of the assay. Pure bacteria were counted on tryptic soy agar (Merck, Darmstadt, Germany) after aerobical incubation at 37° C. during 24 hours. […] Sterilized nutrient broth was prepared using tryptic soy broth (Merck, Darmstadt, Germany), and 4.4 ml of it was added to each test tube. 500 μl of each of the dilutions and 100 μl of bacteria, diluted to the appropriate inoculum size (2×10^4 to 10^5 CFU/ml), was added to the test tubes. […] Becton […], France). The final concentration of each derivative was […]. The tubes and the microtiter plates were incubated during 24 to 48 hours (depending of the bacteria tested) at 37° C. and under agitation. Inhibition of growth was determined by bacterial counting after 24 hours of incubation. […] All bacterial counts were realized with two replicate plates. In general, each assay was performed in two replicates. The reduction of bacterial growth was determined by subtracting the number of the bacteria of the test culture after 24 hours from the number of bacteria of the control culture. The colonies developed after incubation were counted, and the inhibitory effect was calculated according to Rico-Munoz and Davidson, J.

Assay [2] has as its system Enterococcus faecalis (F). The conditions noted are these: 1000 μM; Enterococcus faecalis from pig gastrointestinal content; counting after 24 hours at 37° C.
Description: as §1

The test system of assay [3] is Salmonella typhimurium pF3127 (D). The note with it: 1000 μM; Salmonella typhimurium pF3127 from pig gastrointestinal content; counting after 24 hours at 37° C.
Description: as §1

Assay [4] concerns Klebsiella pneumoniae (C). The note with it: 1000 μM; Klebsiella pneumoniae from pig gastrointestinal content; counting after 24 hours at 37° C.
Description: as §1

Assay [5] relates to Escherichia coli 0.96 (B). The note with it: 1000 μM; Escherichia coli 0.96 from pig gastrointestinal content; counting after 24 hours at 37° C.
Description: as §1

Assay [6] has as its system Staphylococcus hyicus (H). The conditions noted are these: 1000 μM; Staphylococcus hyicus from pig gastrointestinal content; counting after 24 hours at 37° C.
Description: as §1

Assay [7] relates to Salmonella enteritidis pF1338 (E). The note with it: 1000 μM; Salmonella enteritidis pF1338 from pig gastrointestinal content; counting after 24 hours at 37° C.
Description: as §1

Assay [8] concerns Lactobacillus salivarius (I). The note with it: 1000 μM; Lactobacillus salivarius from pig gastrointestinal content; counting after 24 hours at 37° C.
Description: as §1

The subject of a further assay is Enterococcus faecium (G). The conditions noted are these: 1000 μM; Enterococcus faecium from pig gastrointestinal content; counting after 24 hours at 37° C.
Description: as §1

For the substance curcumindipalmitate [Example 1], the “Percentage of inhibition of growth of bacterial strain A” value in assay [1] is 62 ± 0.3%. The “Percentage of inhibition of growth of bacterial strain F” value in assay [2] is given as 38 ± 34%. Besides, the “Percentage of inhibition of growth of bacterial strain D” value in assay [3] is given as 33 ± 29%. In addition, in assay [4], the “Percentage of inhibition of growth of bacterial strain C” value stood at 12 ± 4%. Moreover, the “Percentage of inhibition of growth of bacterial strain B” value in assay [5] is 59 ± 17%. In addition, the “Percentage of inhibition of growth of bacterial strain H” value in [6] is −4 ± 42%. Also, in [7], the “Percentage of inhibition of growth of bacterial strain E” value amounted to 14 ± 13%. The “Percentage of inhibition of growth of bacterial strain I” value in assay [8] is given as 2%.
Regarding “Curcumin diphosphate ammonium salt [derivative 2]”, the “Percentage of inhibition of growth of bacterial strain G” value in the assay with Enterococcus faecium (G) is given as 13 ± 6%. Also, in assay [1], the “Percentage of inhibition of growth of bacterial strain A” value was 35 ± 41%. The “Percentage of inhibition of growth of bacterial strain D” value in assay [3] was 40 ± 72%. Moreover, the “Percentage of inhibition of growth of bacterial strain C” value in assay [4] stood at 25 ± 5%. For the same substance, the “Percentage of inhibition of growth of bacterial strain B” value in [5] is recorded as 47 ± 28%. Further, in assay [6], the “Percentage of inhibition of growth of bacterial strain H” value came to 2 ± 7%. Further, the “Percentage of inhibition of growth of bacterial strain E” value in assay [7] was 30 ± 34%. In addition, the “Percentage of inhibition of growth of bacterial strain I” value in assay [8] is 64 ± 50%.
